# Molecular target: T1, sGC α1/β1 heterodimer stably expressed in CHO-K1 cell line (CHO-K1/sGC) (Homo sapiens, UniProt Q02108+Q02153)
# T1 construct: expressed in transfected cells
# T1 sequence (Q02108 1-690): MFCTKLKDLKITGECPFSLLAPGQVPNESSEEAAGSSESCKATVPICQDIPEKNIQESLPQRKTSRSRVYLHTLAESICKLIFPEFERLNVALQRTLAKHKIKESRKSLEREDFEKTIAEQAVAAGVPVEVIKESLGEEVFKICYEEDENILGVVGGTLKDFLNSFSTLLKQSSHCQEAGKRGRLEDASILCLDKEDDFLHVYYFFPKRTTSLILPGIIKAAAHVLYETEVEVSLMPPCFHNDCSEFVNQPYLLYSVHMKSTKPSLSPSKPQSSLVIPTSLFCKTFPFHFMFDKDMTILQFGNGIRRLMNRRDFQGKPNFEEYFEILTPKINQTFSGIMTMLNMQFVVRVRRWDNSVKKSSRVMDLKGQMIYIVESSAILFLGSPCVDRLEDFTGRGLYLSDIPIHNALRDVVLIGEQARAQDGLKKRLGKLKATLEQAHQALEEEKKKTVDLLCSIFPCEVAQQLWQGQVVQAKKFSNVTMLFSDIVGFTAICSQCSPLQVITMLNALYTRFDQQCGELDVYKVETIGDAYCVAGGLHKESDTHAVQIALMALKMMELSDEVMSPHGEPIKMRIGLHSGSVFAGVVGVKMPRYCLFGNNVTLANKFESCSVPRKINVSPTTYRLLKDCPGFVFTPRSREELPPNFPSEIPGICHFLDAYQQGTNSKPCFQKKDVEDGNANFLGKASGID
# T1 sequence (Q02153 1-619): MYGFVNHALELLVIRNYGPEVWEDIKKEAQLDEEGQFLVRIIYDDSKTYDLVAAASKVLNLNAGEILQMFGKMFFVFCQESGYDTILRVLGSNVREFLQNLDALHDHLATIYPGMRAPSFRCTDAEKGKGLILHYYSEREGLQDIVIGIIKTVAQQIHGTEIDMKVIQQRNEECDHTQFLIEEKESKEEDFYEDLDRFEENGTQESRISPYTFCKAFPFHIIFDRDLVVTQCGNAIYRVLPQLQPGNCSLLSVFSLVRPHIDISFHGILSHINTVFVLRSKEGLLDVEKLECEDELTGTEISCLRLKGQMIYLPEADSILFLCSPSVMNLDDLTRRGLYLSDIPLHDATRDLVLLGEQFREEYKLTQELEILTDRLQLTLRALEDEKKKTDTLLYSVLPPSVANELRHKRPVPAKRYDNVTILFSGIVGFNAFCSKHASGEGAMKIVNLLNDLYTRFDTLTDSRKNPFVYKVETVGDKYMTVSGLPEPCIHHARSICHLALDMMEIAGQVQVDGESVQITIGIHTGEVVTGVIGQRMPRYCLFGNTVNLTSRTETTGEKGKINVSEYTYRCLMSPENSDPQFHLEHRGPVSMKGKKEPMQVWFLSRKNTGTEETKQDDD
# Assay: Cell-based sGC Functional Assay (CASA Assay), cGMP generation
# Conditions: CHO-K1/sGC cells, 1 hr at 37° C., cGMP by HTRF, 4P fit; presence or absence of 1 μM DETA-NO not given; read-out: IP (nM) (inflection point)
# How it was run: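 CHO-K1 cells stably expressing human sGC α1/β1 (4×10^5/mL, 0.5 mM IBMX) were treated with compounds (2.5% DMSO final) ± 1 μM DETA-NO for 1 hr at 37° C. Intracellular cGMP measured by HTRF. Activity expressed as % of Compound A maximal cGMP; IP and maximum fold induction from 4P fit.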
row,Compound,EC50
1,"CCCc1nc(-c2nc(N)c3c(n2)NC(=O)C3(C)c2ccc(Cl)cc2)cn2nc(C)nc12 (centres unmarked) [Example 93A, 4-amino-5-(4-chlorophenyl)-5-methyl-2-(2-methyl-8-propyl-[1,2,4]triazolo[1,5-a]pyrazin-6-yl)-5H-pyrrolo[2,3-d]pyrimidin-6(7H)-one]",439 nM
2,"CC1(c2cn(C3CC3)nn2)C(=O)Nc2nc(-c3cn4ncnc4c(CCC(F)(F)C(F)(F)F)n3)nc(N)c21 (centres unmarked) [Example 95B, 4-Amino-5-(1-cyclopropyl-1H-1,2,3-triazol-4-yl)-5-methyl-2-(8-(3,3,4,4,4-pentafluorobutyl)-[1,2,4]triazolo[1,5-a]pyrazin-6-yl)-5H-pyrrolo[2,3-d]pyrimidin-6(7H)-one]",257 nM
3,"Nc1nc(-c2cn3ncnc3c(CCC(F)(F)C(F)(F)F)n2)nc2c1C(c1cn(C3CC3)nn1)(C1CC1)C(=O)N2 (centres unmarked) [Example 96B, 4-amino-5-cyclopropyl-5-(1-cyclopropyl-1H-1,2,3-triazol-4-yl)-2-(8-(3,3,4,4,4-pentafluorobutyl)-[1,2,4]triazolo[1,5-a]pyrazin-6-yl)-5H-pyrrolo[2,3-d]pyrimidin-6(7H)-one]",134 nM
4,"CC1(c2nnc(C(F)F)o2)C(=O)Nc2nc(-c3cn4ncnc4c(CCCC(F)(F)F)n3)nc(N)c21 (centres unmarked) [Example 100A, 4-amino-5-(5-(difluoromethyl)-1,3,4-oxadiazol-2-yl)-5-methyl-2-(8-(4,4,4-trifluorobutyl)-[1,2,4]triazolo[1,5-a]pyrazin-6-yl)-5H-pyrrolo[2,3-d]pyrimidin-6(7H)-one]",127 nM
5,"CC1(c2nnc(C(F)(F)F)o2)C(=O)Nc2nc(-c3cn4ncnc4c(CCCC(F)(F)F)n3)nc(N)c21 (centres unmarked) [Example 101A, 4-amino-5-methyl-2-(8-(4,4,4-trifluorobutyl)-[1,2,4]triazolo[1,5-a]pyrazin-6-yl)-5-(5-(trifluoromethyl)-1,3,4-oxadiazol-2-yl)-5H-pyrrolo[2,3-d]pyrimidin-6(7H)-one]",121 nM
6,"Cc1nc2c(CCC(F)(F)C(F)(F)F)nc(-c3nc(N)c4c(n3)NC(=O)C4(C)c3nnc(C4CC4)o3)cn2n1 (centres unmarked) [Example 103A, 4-amino-5-(5-cyclopropyl-1,3,4-oxadiazol-2-yl)-5-methyl-2-(2-methyl-8-(3,3,4,4,4-pentafluorobutyl)-[1,2,4]triazolo[1,5-a]pyrazin-6-yl)-5H-pyrrolo[2,3-d]pyrimidin-6(7H)-one]",219 nM
7,"Nc1nc(-c2cn3ncnc3c(CCCC(F)(F)F)n2)nc2c1C(c1nnc(C3CC3)o1)(C1CC1)C(=O)N2 (centres unmarked) [Example 104A, 4-amino-5-cyclopropyl-5-(5-cyclopropyl-1,3,4-oxadiazol-2-yl)-2-(8-(4,4,4-trifluorobutyl)-[1,2,4]triazolo[1,5-a]pyrazin-6-yl)-5H-pyrrolo[2,3-d] pyrimidin-6(7H)-one]",258 nM
8,"CC1(c2ccc(O)cn2)C(=O)Nc2nc(-c3cn4ncnc4c(CCC(F)(F)C(F)(F)F)n3)nc(N)c21 (centres unmarked) [Example 110A, 4-Amino-5-(5-hydroxypyridin-2-yl)-5-methyl-2-(8-(3,3,4,4,4-pentafluorobutyl)-[1,2,4]triazolo [1,5-a]pyrazin-6-yl)-5,7-dihydro-6H-pyrrolo [2,3-d]pyrimidin-6-one]",139 nM
9,"CC1(c2ccc(O)cn2)C(=O)Nc2nc(-c3cn4ncnc4c(CCCC(F)(F)F)n3)nc(N)c21 (centres unmarked) [Example 111A, 4-amino-5-(5-hydroxypyridin-2-yl)-5-methyl-2-(8-(4,4,4-trifluorobutyl)-[1,2,4]triazolo[1,5-a]pyrazin-6-yl)-5H-pyrrolo[2,3-d]pyrimidin-6(7H)-one]",370 nM
10,"Nc1nc(-c2cn3ncnc3c(CCCC(F)(F)F)n2)nc2c1C(c1ccc(O)cn1)(C1CC1)C(=O)N2 (centres unmarked) [Example 112A, 4-amino-5-cyclopropyl-5-(5-hydroxypyridin-2-yl)-2-(8-(4,4,4-trifluorobutyl)-[1,2,4]triazolo[1,5-a]pyrazin-6-yl)-5H-pyrrolo[2,3-d]pyrimidin-6(7H)-one]",212 nM

# Stronger by EC50, values ahead:
row,EC50,Compound
1,79.4 nM,"CC1(c2ccc(Cl)cc2)C(=O)Nc2nc(-c3cn4ncnc4cn3)nc(N)c21 (centres unmarked) [Example 94A, 2-([1,2,4]triazolo[1,5-a]pyrazin-6-yl)-4-amino-5-(4-chlorophenyl)-5-methyl-5H-pyrrolo[2,3-d]pyrimidin-6(7H)-one]"
2,86.1 nM,"CC1(c2nnc(C3CC3)o2)C(=O)Nc2nc(-c3cn4ncnc4c(CCC(F)(F)C(F)(F)F)n3)nc(N)c21 (centres unmarked) [Example 98B, 4-amino-5-(5-cyclopropyl-1,3,4-oxadiazol-2-yl)-5-methyl-2-(8-(3,3,4,4,4-pentafluorobutyl)-[1,2,4]triazolo[1,5-a]pyrazin-6-yl)-5H-pyrrolo[2,3-d]pyrimidin-6(7H)-one]"
3,47.5 nM,"CC1(c2nnc(C3CC3)o2)C(=O)Nc2nc(-c3cn4ncnc4c(CCCC(F)(F)F)n3)nc(N)c21 (centres unmarked) [Example 99A, 4-amino-5-(5-cyclopropyl-1,3,4-oxadiazol-2-yl)-5-methyl-2-(8-(4,4,4-trifluorobutyl)-[1,2,4]triazolo[1,5-a]pyrazin-6-yl)-5H-pyrrolo[2,3-d]pyrimidin-6(7H)-one]"
4,29.1 nM,"CCCCc1nc(-c2nc(N)c3c(n2)NC(=O)C3(C)c2nnc(C(F)(F)F)o2)cn2ncnc12 (centres unmarked) [Example 102A, 4-amino-2-(8-butyl-[1,2,4]triazolo[1,5-a]pyrazin-6-yl)-5-methyl-5-(5-(trifluoromethyl)-1,3,4-oxadiazol-2-yl)-5H-pyrrolo[2,3-d]pyrimidin-6(7H)-one]"
5,26.7 nM,"CCCCc1nc(-c2nc(N)c3c(n2)NC(=O)C3(c2nnc(C(F)(F)F)o2)C2CC2)cn2ncnc12 (centres unmarked) [Example 105A, 4-amino-2-(8-butyl-[1,2,4]triazolo[1,5-a]pyrazin-6-yl)-5-cyclopropyl-5-(5-(trifluoromethyl)-1,3,4-oxadiazol-2-yl)-5H-pyrrolo[2,3-d]pyrimidin-6(7H)-one]"
6,15.5 nM,"Nc1nc(-c2cn3ncnc3c(CCCC(F)(F)F)n2)nc2c1C(c1nnc(C(F)(F)F)o1)(C1CC1)C(=O)N2 (centres unmarked) [Example 106A, 4-amino-5-cyclopropyl-2-(8-(4,4,4-trifluorobutyl)-[1,2,4]triazolo[1,5-a]pyrazin-6-yl)-5-(5-(trifluoromethyl)-1,3,4-oxadiazol-2-yl)-5H-pyrrolo[2,3-d]pyrimidin-6(7H)-one]"
7,74.7 nM,"Nc1nc(-c2cn3ncnc3c(CCC(F)(F)C(F)(F)F)n2)nc2c1C(c1nnc(C3CC3)o1)(C1CC1)C(=O)N2 (centres unmarked) [Example 107A, 4-amino-5-cyclopropyl-5-(5-cyclopropyl-1,3,4-oxadiazol-2-yl)-2-(8-(3,3,4,4,4-pentafluorobutyl)-[1,2,4]triazolo[1,5-a]pyrazin-6-yl)-5H-pyrrolo[2,3-d]pyrimidin-6(7H)-one]"
8,14.7 nM,"Nc1nc(-c2cn3ncnc3c(CCCC(F)(F)F)n2)nc2c1C(c1nnc(C3(F)CC3)o1)(C1CC1)C(=O)N2 (centres unmarked) [Example 108A, 4-amino-5-cyclopropyl-5-(5-(1-fluorocyclopropyl)-1,3,4-oxadiazol-2-yl)-2-(8-(4,4,4-trifluorobutyl)-[1,2,4]triazolo[1,5-a]pyrazin-6-yl)-5H-pyrrolo[2,3-d] pyrimidin-6(7H)-one]"
9,7.3 nM,"CC1(c2nnc(C3(F)CC3)o2)C(=O)Nc2nc(-c3cn4ncnc4c(CCCC(F)(F)F)n3)nc(N)c21 (centres unmarked) [Example 109A, 4-amino-5-(5-(1-fluorocyclopropyl)-1,3,4-oxadiazol-2-yl)-5-methyl-2-(8-(4,4,4-trifluorobutyl)-[1,2,4]triazolo[1,5a]pyrazin-6-yl)-5H-pyrrolo[2,3-d] pyrimidin-6(7H)-one]"

# Same assay, conditions: CHO-K1/sGC cells, 1 hr at 37° C., cGMP by HTRF; presence or absence of 1 μM DETA-NO not given; read-out: % Act. (percent activation relative to maximum cGMP production of Compound A = 100%)
row,Emax,Compound
1,70%,"CC1(c2ccc(O)cn2)C(=O)Nc2nc(-c3cn4ncnc4c(CCC(F)(F)C(F)(F)F)n3)nc(N)c21 (centres unmarked) [Example 110A, 4-Amino-5-(5-hydroxypyridin-2-yl)-5-methyl-2-(8-(3,3,4,4,4-pentafluorobutyl)-[1,2,4]triazolo [1,5-a]pyrazin-6-yl)-5,7-dihydro-6H-pyrrolo [2,3-d]pyrimidin-6-one]"
